Data set [1] relates to some paramyxoviruses and pneumoviruses. Conditions: cited from earlier work.
In data set [2] the target is NiV G glycoprotein (Nipah virus, UniProt Q9IH62).
In data set [3] the test system is Human respiratory syncytial virus (RSV A2 strain). Put plainly: Plaque assay for RSV infections. It counts as cell-based.
For data set [4], the system named is NiV F and G glycoproteins. Type of data set: cell-based.
Data set [5] concerns pseudotyped NiV/VSV virus (pNiV). Type of data set: cell-based, Nipah virus.
Data set [6] relates to vesicular stomatitis virus (VSV). Type of data set: cell-based.
Data set [7] relates to pNiV viral membrane. Set-up: species or system NiV.
Data set [8] deals with bovine rotavirus strain NCDV. Put plainly: Rotavirus infection assay in MA104 cells. It counts as cell-based.
Data set [9] concerns pNiV viral membrane. Set-up: species or system NiV. The source holds these as a separate data set.
Data set [10] deals with Influenza virus. Type of data set: cell-based.
For data set [11], the target named is NiV F and NiV G on pseudotyped NiV virions (Nipah virus, UniProt Q9IH62+Q9IH63).
Data set [12] concerns Vero cells. Put plainly: Cytotoxicity / cell viability assay (CCK-8).
In data set [13] the test system is 293T cells transfected with NiV F and G. It counts as cell-based.
The subject of data set [14] is HSV-1 KOS. Type of data set: cell-based.
In data set [15] the target is NiV F protein (Nipah virus, UniProt Q9IH63).
Sequence of NiV F protein (Q9IH63 110-546 limits assumed): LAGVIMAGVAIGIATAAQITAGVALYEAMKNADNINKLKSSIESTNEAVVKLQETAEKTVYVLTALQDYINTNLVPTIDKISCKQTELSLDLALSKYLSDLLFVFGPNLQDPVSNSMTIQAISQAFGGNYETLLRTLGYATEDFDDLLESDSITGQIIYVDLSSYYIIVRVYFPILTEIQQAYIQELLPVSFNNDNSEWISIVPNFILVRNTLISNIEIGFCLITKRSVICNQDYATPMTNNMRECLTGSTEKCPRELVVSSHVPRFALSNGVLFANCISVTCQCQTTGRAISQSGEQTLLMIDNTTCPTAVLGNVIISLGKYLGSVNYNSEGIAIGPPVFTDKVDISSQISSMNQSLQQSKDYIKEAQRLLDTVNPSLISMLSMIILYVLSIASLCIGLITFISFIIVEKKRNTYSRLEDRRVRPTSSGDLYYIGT
Sequence of NiV F protein (Q9IH63 27-109 limits assumed): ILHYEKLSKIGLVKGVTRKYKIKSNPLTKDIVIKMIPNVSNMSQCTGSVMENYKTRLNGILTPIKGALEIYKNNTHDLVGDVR

Sequence of NiV G glycoprotein (Q9IH62 whole entry, looked up): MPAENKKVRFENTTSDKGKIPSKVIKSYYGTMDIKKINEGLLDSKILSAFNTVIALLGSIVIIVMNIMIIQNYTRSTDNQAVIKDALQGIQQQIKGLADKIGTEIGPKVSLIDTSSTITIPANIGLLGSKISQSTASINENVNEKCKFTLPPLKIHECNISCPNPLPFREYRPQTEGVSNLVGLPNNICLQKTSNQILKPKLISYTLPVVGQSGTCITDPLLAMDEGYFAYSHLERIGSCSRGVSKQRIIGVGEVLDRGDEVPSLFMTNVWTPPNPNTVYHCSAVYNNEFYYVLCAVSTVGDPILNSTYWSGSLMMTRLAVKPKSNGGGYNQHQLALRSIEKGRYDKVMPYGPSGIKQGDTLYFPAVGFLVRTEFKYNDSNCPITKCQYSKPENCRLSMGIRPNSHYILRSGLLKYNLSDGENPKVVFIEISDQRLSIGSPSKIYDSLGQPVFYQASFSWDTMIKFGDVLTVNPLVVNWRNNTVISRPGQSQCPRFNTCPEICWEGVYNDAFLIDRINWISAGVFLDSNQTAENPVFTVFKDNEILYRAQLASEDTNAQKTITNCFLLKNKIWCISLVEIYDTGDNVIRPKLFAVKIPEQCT

For the compound `C1COCCN1.COc1ccc(P(=S)(S)N2CCOCC2)cc1` (centres unmarked) [GYY4137], the EC50 in data set [1] was 10 mM.

Regarding `COC(=O)C(CSSC(=O)c1ccccc1)NC(=O)c1ccccc1` (centres unmarked) [XM-01], the “ephrinB2 receptor binding ability of NiV G” value in [2] is “did not interfere”. Further, the RSV infection result in [3] was “inhibited”. Moreover, the “protein G or F expression on cell surfaces” value in data set [4] is on record as “neither XM-01 at 10 μM nor LJ001 at 1 μM significantly affect”. In addition, in [5], the “capability of treated virions to infect Vero cells” value is “highly inhibited”, the “inhibition when added after infection (time of addition)” value is “completely incapable of inhibiting the virus”, the “inhibitory activity in the absence of light” value is listed as “did not need light to inhibit pNiV infections” and the inhibitory properties result is recorded as “high inhibitory properties”. Besides, in data set [5], the “potency as antiviral inhibitor compared with NaHS or GYY4137” value is on record as “much more potent” and the “viral infection of pretreated cells” value is listed as “did not significantly reduce viral infection”. In addition, the inhibition of infectivity entry in data set [5] (10 μM) is “high inhibition of infectivity”. Further, the EC50 in data set [5] (read-out: EC50 (inhibitory concentration, pNiV system)) is roughly 0.001 mM. Besides, in data set [6], the VSV infection entry is “inhibited”. In data set [7], the “RNA spill from virions (TEM)” value is recorded as “RNA spilled more frequently” and the “viral membrane appearance (TEM)” value is reported as “compromised viral membrane”. The non-enveloped rotavirus infection entry in [8] is given as “no significant inhibition”. Moreover, in data set [9], the “ratio of excimer to monomer (membrane fluidity)” value is listed as “considerably lower ratio of excimers to monomers”. Moreover, the Influenza virus infection entry in [10] is reported as “inhibited”. The “glycoprotein conformations (antibody binding to NiV F or NiV G)” value in data set [11] is “no significant changes in antibody binding”. Further, the cytotoxicity result in data set [12] (1, 3, and 10 μM) is reported as “low cytotoxicity”. Moreover, the “difference between inhibitory and cytotoxic concentrations” value in [12] (EC50 pNiV vs CC50) is roughly 3 log. Further, in [12] (Vero cells, 1 μM-1 mM, calculated using Graphpad Prism), the CC50 (as a rule, the concentration giving 50% cytotoxicity) is roughly 1 mM. Further, the “cell to cell fusion” value in data set [13] is “inhibit cell to cell fusion”. Besides, the HSV-1 plaque formation result in [14] is recorded as “inhibit HSV-1 plaque formation in a concentration-dependent fashion”. Also, the NiV-F protein triggering result in data set [15] was “not decreased”.

Turning to `CC(=O)NC(CSSC(=O)c1ccccc1)C(=O)NCc1ccccc1` (centres unmarked) [XM-02], in data set [5], the inhibitory properties result was “high inhibitory properties”.

Regarding `COC(=O)C(CSSC(C)=O)NC(=O)c1ccccc1` (centres unmarked) [XM-03], the inhibitory properties entry in data set [5] is given as “high inhibitory properties”.

As to `COC(=O)C(CSC(=O)c1ccccc1)NC(=O)c1ccccc1` (centres unmarked) [XM-10], in data set [5], the inhibitory properties result is recorded as “high inhibitory properties”.

For the compound `COC(=O)C(CSC(C)=O)NC(=O)c1ccccc1` (centres unmarked) [XM-11], in [5], the inhibitory properties result was “high inhibitory properties”.

These data come from patent publication US20180271823A1, “SULFUR-BASED BROAD SPECTRUM ANTIVIRALS” (priority 2017, published 2018).
